In patent US8211909B2, “Treatment of antibiotic-resistant bacteria infection” (TaiGen Biotechnology Co., Ltd., priority 2008, dated 2012):
In brackets after ≈: the same amount, converted by molar mass. Where two headings read alike, the source gives them in different places.

Columns and labels:
[1] = system: Vancomycin-resistant E. faecalis; assay: MIC by agar dilution (CLSI-M100-S18), Taiwan Enterococci isolates; assay type: cell-based, Enterococcus faecalis
Method: (§1) Compound 1 was tested for its inhibitory effect against multidrug-resistant Methicillin-resistant Staphylococcus aureus and Enterococci obtained by 10 medical centers in all regions of Taiwan. MICs were determined using the agar dilution methods recommended by the Clinical and Laboratory Standards Institute (CLSI-M100-S18).

[2] = system: Staphylococcus aureus strains (MRSA, hVISA, VISA, VRSA, quinolone-resistant MRSA); assay: MIC by agar dilution against Staphylococcal strains (MRSA, hVISA, VISA, VRSA, quinolone-resistant MRSA); assay type: cell-based; settings: for MIC50 / MIC90 / MIC: Staphylococcus aureus
Method: Compound 1 was tested for its inhibitory effect against 26 Methicillin-resistant Staphylococcus aureus (MRSA) strains, 2 hetero-Vancomycin intermediate Staphylococcus aureus (hVISA) strains, 24 Vancomycin-intermediate Staphylococcus aureus (VISA) strains, 5 Vancomycin-resistant Staphylococcus aureus (VRSA) strains, and 31 quinolone-resistant Vancomycin-susceptibale MRSA strains with defined mutations in QRDR. These mutations were determined by sequencing analysis of the QRDR (gyrA, gyrB, grlA, and grlB). Efflux testing was performed by the reserpine method (Brenwald, et al., Antimicrob. Agents Chemother. 1998, 42: 2032-2035).

[3] = system: multidrug-resistant Methicillin-resistant Staphylococcus aureus; assay: MIC by agar dilution (CLSI-M100-S18), Taiwan multidrug-resistant MRSA isolates; assay type: cell-based; settings: for MIC50 / MIC90: Staphylococcus aureus, MRSA
Method: as §1

[4] = system: Vancomycin-resistant E. faecium; assay: MIC by agar dilution (CLSI-M100-S18), Taiwan Enterococci isolates; assay type: cell-based, Enterococcus faecium
Method: as §1

[5] = Pharmacokinetic assays of plasma of subjects taking Compound 1; settings: for Cmax: day 10, plasma; for Free AUC0-24 / Free Cmax: corrected for plasma protein binding
Method: 5 mL of each sample was transferred to a heparin sodium tube and immediately placed on ice. Plasma was separated by centrifugation at approximately 4° C. and transferred to appropriately labeled polypropylene specimen containers (two tubes with 1-1.5 mL plasma/tube) and frozen at approximately −70° C. before use.
Prior to analysis of the blood samples, pharmacokinetic assays were validated.
The pharmacokinetic assays of the blood samples were performed by Charles River Laboratories (Worcester, Mass.).

[6] = Enterococcus faecalis, Vancomycin-resistant E. faecalis (n = 34)
[7] = hVISA(2) + VISA (24) + VRSA (5)
[8] = Ciprofloxacin-resistant MRSA (n = 20)
[9] = Ciprofloxacin-susceptible MRSA (n = 20)
[10] = Daptomycin-nonsusceptible MRSA (n = 5)
[11] = Vancomycin-intermediate MRSA (n = 50)
[12] = Enterococcus faecium, Vancomycin-resistant E. faecium (n = 78)
[13] = 500 mg q24 p.o., MIC90 0.125 μg/mL
[14] = 500 mg q24 p.o., MIC90 0.5 μg/mL
[15] = 500 mg q24 p.o., MIC90 0.75 μg/mL
[16] = 750 mg q24 p.o., MIC90 0.125 μg/mL
[17] = 750 mg q24 p.o., MIC90 0.5 μg/mL
[18] = 750 mg q24 p.o., MIC90 0.75 μg/mL
[19] = 1000 mg q24 p.o., MIC90 0.125 μg/mL
[20] = 1000 mg q24 p.o., MIC90 0.5 μg/mL
[21] = 1000 mg q24 p.o., MIC90 0.75 μg/mL
[22] = 1000 mg q24 p.o., MIC90 1 μg/mL

With `COc1c(N2C[C@@H](C)C[C@H](N)C2)ccc2c(=O)c(C(=O)O)cn(C3CC3)c12` [Compound 1, (3S,5S)-7-[3-amino-5-methyl-piperidinyl]-1-cyclopropyl-1,4-dihydro-8-methoxy-4-oxo-3-quinolinecarboxylic acid] the MIC50 [1, 6] was 4 µg/mL (≈ 10.8 µM), the MIC90 [1, 6] was 4 µg/mL (≈ 10.8 µM) and the “MIC Range” value ([1]; Vancomycin-resistant E. faecalis (n = 34)) was 0.12 to 8 µg/mL. For the same compound, the “inhibition (in words)” value ([1]; Vancomycin-resistant Enterococcus faecalis) was “effective”, the “inhibition (in words)” value ([2]; Methicillin-resistant, hVISA, VISA, VRSA and quinolone-resistant Vancomycin-susceptible MRSA isolates) was “effectively inhibited” and the MIC50 ([2]; MRSA (26)) was 0.03 µg/mL (≈ 0.0808 µM). It also gave an MIC90 ([2]; MRSA (26)) of 0.06 µg/mL (≈ 0.162 µM), an MIC50 ([2]; Quinolone-resistant MRSA (31)) of 1 µg/mL (≈ 2.69 µM) and an MIC90 ([2]; Quinolone-resistant MRSA (31)) of 2 µg/mL (≈ 5.38 µM). It also gave an MIC50 [2, 7] of 1 µg/mL, an MIC90 [2, 7] of 2 µg/mL and an MIC ([2]; read-out: MIC Range, MRSA (26)) of 0.016 to 0.06 µg/mL (≈ 0.0431 to 0.162 µM). For the same compound, the MIC ([2]; read-out: MIC Range, Quinolone-resistant MRSA (31)) was 0.5 to 4 µg/mL (≈ 1.35 to 10.8 µM), the MIC ([2]; read-out: MIC Range, hVISA(2) + VISA (24) + VRSA (5)) was 0.06 to 2 µg/mL and the MIC ([2]; read-out: MICs, against these strains) was 0.06 to 4 µg/mL (≈ 0.162 to 10.8 µM). For the same compound, the “MIC Range” value [3, 8] was 0.5 to 1 µg/mL, the “MIC Range” value [3, 9] was “≦0.03-0.06 μg/mL” and the “MIC Range” value [3, 10] was 0.5 to 1 µg/mL. For the same compound, the “inhibition (in words)” value ([3]; MRSA isolates that are Ciprofloxacin-resistant, Vancomycin-intermediate-resistant, Daptomycin-nonsusceptible) was “effective”, the MIC50 [3, 8] was 0.5 µg/mL (≈ 1.35 µM) and the MIC90 [3, 8] was 1 µg/mL (≈ 2.69 µM). It also gave an MIC50 [3, 9] of at most 0.03 µg/mL, an MIC90 [3, 9] of at most 0.03 µg/mL and an MIC50 [3, 10] of 0.5 µg/mL (≈ 1.35 µM). For the same compound, the MIC90 [3, 10] was 1 µg/mL (≈ 2.69 µM), the MIC50 [3, 11] was 0.5 µg/mL (≈ 1.35 µM) and the MIC90 [3, 11] was 2 µg/mL (≈ 5.38 µM). For the same compound, the “MIC Range” value [3, 11] was 0.03 to 8 µg/mL, the MIC50 [4, 12] was 4 µg/mL (≈ 10.8 µM) and the MIC90 [4, 12] was 16 µg/mL (≈ 43.1 µM). For the same compound, the “MIC Range” value ([4]; Vancomycin-resistant E. faecium (n = 78)) was 0.06 to 16 µg/mL, the “inhibition (in words)” value ([4]; Vancomycin-resistant Enterococcus faecium) was “effective” and the Cmax ([5]; 500 mg q24 p.o.) was 5560 ng/mL. The “Free AUC0-24/MIC90 ratio at steady state” value [5, 13] was 259, the “Free Cmax/MIC90 ratio at steady state” value [5, 13] was 37 and the “Free AUC0-24/MIC90 ratio at steady state” value [5, 14] was 65. For the same compound, the “Free Cmax/MIC90 ratio at steady state” value [5, 14] was 9, the “Free AUC0-24/MIC90 ratio at steady state” value [5, 15] was 43 and the “Free Cmax/MIC90 ratio at steady state” value [5, 15] was 6. The “Free AUC0-24/MIC90 ratio at steady state” value ([5]; 500 mg q24 p.o., MIC90 1 μg/mL) was 32, the “Free Cmax/MIC90 ratio at steady state” value ([5]; 500 mg q24 p.o., MIC90 1 μg/mL) was 5 and the “Free AUC0-24/MIC90 ratio at steady state” value ([5]; 500 mg q24 p.o., MIC90 […]) was 130. The “Free Cmax/MIC90 ratio at steady state” value ([5]; 500 mg q24 p.o., MIC90 […]) was 19, the “Free AUC0-24” value ([5]; 500 mg q24 p.o.) was 32400 ng·h/mL and the “Free Cmax” value ([5]; 500 mg q24 p.o.) was 4700 ng/mL. For the same compound, the Cmax ([5]; 750 mg q24 p.o.) was 6820 ng/mL, the “Free AUC0-24/MIC90 ratio at steady state” value [5, 16] was 393 and the “Free Cmax/MIC90 ratio at steady state” value [5, 16] was 46. For the same compound, the “Free AUC0-24/MIC90 ratio at steady state” value [5, 17] was 98, the “Free Cmax/MIC90 ratio at steady state” value [5, 17] was 11 and the “Free AUC0-24/MIC90 ratio at steady state” value [5, 18] was 65. The “Free Cmax/MIC90 ratio at steady state” value [5, 18] was 8, the “Free AUC0-24/MIC90 ratio at steady state” value ([5]; 750 mg q24 p.o., MIC90 1 μg/mL) was 49 and the “Free Cmax/MIC90 ratio at steady state” value ([5]; 750 mg q24 p.o., MIC90 1 μg/mL) was 6. For the same compound, the “Free AUC0-24/MIC90 ratio at steady state” value ([5]; 750 mg q24 p.o., MIC90 […]) was 196, the “Free Cmax/MIC90 ratio at steady state” value ([5]; 750 mg q24 p.o., MIC90 […]) was 23 and the “Free AUC0-24” value ([5]; 750 mg q24 p.o.) was 49100 ng·h/mL. For the same compound, the “Free Cmax” value ([5]; 750 mg q24 p.o.) was 5700 ng/mL, the Cmax ([5]; 1000 mg q24 p.o.) was 8200 ng/mL and the “Free AUC0-24/MIC90 ratio at steady state” value [5, 19] was 503. The “Free Cmax/MIC90 ratio at steady state” value [5, 19] was 55, the “Free AUC0-24/MIC90 ratio at steady state” value [5, 20] was 126 and the “Free Cmax/MIC90 ratio at steady state” value [5, 20] was 14. The “Free AUC0-24/MIC90 ratio at steady state” value [5, 21] was 84, the “Free Cmax/MIC90 ratio at steady state” value [5, 21] was 9 and the “Free AUC0-24/MIC90 ratio at steady state” value [5, 22] was 63. For the same compound, the “Free Cmax/MIC90 ratio at steady state” value [5, 22] was 7, the “Free AUC0-24/MIC90 ratio at steady state” value ([5]; 1000 mg q24 p.o., MIC90 […]) was 251 and the “Free Cmax/MIC90 ratio at steady state” value ([5]; 1000 mg q24 p.o., MIC90 […]) was 28. The “Free AUC0-24” value ([5]; 1000 mg q24 p.o.) was 62900 ng·h/mL and the “Free Cmax” value ([5]; 1000 mg q24 p.o.) was 6900 ng/mL.
